# Laboratory results as given in US20200264191A1, “METHODS AND KITS FOR DIAGNOSIS OF FAMILIAL MEDITERRANEAN FEVER” (INSERM (Institut National de la Santé et de la Recherche …, priority 2017, published 2020).
# Assays:
# [1] = tested on: Primary monocytes from HD or FMF patients; assay: Monocyte cell death by propidium iodide incorporation; format: cell-based, human; conditions: for difference in AUC of cell death kinetics between FMF and HD monocytes (in words): UCN-01 12.5 μM unprimed, or LPS then nigericin 5 μM
# Method: Propidium iodide incorporation was monitored every 5 minutes from 5 minutes to 105 minutes post-UCN-01/nigericin stimulation using a fluorimeter. Cell death was calculated using TX-100-treated cells (100% cell death) and normalized cell death kinetics are presented (A, D). Each symbol corresponds to the average values of the normalized cell death of monocytes from 17 HD and […]. Mean and standard deviations are shown at each time point. […] (C-G) The time post-treatment needed to reach 20% monocytes cell death was calculated from each HD (n=17) and FMF patients (n=13) cell death kinetics. […] The bar represents the mean.
# Cell death was determined by measuring propidium iodide incorporation/fluorescence at 1 h30 post stauroporin addition. […] The bar represents the mean. Cell death was normalized using TX-100-treated cells (100% cell death). With a cell death threshold set at 10% (horizontal line), this assay discriminates healthy donors from FMF patients.
# Three technical replicates per conditions were done.
# [2] = tested on: PKC (Rat brain); conditions: cited from earlier work
# [3] = target: T1, PKCε (Homo sapiens, UniProt Q02156); conditions: cell-free assays where stated; cited from earlier work
# T1 sequence (Q02156 1-737): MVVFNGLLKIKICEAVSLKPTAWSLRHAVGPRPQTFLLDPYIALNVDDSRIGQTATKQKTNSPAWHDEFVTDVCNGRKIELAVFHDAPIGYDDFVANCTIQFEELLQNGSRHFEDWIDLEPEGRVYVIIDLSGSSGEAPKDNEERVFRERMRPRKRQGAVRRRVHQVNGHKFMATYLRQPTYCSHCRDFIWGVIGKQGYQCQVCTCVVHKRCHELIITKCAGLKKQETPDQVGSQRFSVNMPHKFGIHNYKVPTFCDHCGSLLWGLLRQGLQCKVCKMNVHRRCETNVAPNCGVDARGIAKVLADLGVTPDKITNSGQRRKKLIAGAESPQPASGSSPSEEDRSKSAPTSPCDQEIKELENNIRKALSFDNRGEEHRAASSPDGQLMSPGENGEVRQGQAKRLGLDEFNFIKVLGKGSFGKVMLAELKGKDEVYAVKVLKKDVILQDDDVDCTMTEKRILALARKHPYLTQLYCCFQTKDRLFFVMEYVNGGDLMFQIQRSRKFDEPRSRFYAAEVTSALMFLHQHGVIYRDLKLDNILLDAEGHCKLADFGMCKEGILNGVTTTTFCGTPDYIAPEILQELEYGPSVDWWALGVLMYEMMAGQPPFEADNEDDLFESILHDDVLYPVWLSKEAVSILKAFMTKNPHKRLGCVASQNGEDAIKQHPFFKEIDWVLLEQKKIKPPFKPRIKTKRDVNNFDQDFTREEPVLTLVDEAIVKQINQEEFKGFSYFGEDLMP
# [4] = target: PKCα (Homo sapiens, UniProt P17252); conditions: cell-free assays where stated; cited from earlier work
# [5] = target: PKCβ (Homo sapiens, UniProt P05771); conditions: cell-free assays where stated; cited from earlier work
# Chain of PKCβ (P05771 whole entry, species assumed): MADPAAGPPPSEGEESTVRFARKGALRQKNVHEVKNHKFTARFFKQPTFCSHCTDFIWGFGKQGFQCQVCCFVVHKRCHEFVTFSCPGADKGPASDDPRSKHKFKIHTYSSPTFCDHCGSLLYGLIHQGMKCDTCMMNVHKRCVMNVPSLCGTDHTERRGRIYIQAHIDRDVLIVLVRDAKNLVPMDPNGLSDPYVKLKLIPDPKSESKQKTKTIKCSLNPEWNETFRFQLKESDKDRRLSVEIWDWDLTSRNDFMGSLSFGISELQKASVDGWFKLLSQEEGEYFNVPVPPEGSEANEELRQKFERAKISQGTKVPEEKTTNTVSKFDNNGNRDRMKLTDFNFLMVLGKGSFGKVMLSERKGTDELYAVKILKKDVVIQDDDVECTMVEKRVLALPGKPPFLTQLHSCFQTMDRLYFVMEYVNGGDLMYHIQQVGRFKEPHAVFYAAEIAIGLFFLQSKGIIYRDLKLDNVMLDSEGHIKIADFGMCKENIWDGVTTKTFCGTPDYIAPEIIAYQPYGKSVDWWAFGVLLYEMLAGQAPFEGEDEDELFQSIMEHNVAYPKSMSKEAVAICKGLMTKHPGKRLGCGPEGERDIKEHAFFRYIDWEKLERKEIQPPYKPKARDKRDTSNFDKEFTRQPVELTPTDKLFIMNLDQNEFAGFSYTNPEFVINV
# [6] = target: PKCγ (Homo sapiens, UniProt P05129); conditions: cell-free assays where stated; cited from earlier work
# [7] = target: PKCδ (Homo sapiens, UniProt Q05655); conditions: cell-free assays where stated; cited from earlier work
# [8] = target: T2, PKCζ (Homo sapiens, UniProt Q05513); conditions: cited from earlier work
# T2 sequence (Q05513 1-592): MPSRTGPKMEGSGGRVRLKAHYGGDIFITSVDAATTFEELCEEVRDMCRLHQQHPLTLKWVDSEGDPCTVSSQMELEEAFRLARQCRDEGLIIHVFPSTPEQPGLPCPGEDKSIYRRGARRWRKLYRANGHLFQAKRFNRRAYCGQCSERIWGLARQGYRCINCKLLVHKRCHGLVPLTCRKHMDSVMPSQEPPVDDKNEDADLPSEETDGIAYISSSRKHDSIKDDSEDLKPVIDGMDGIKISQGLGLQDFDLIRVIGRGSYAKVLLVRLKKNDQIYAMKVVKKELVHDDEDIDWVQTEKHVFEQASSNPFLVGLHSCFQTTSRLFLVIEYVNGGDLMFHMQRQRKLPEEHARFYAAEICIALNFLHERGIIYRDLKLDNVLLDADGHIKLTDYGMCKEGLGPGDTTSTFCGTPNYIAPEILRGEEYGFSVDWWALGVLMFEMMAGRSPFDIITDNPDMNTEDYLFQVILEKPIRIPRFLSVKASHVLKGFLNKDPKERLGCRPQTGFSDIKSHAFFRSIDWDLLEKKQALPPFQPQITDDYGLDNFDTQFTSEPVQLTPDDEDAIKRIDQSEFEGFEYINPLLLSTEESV
# [9] = target: T3, PKCμ (Homo sapiens, UniProt Q15139); conditions: cited from earlier work
# T3 sequence (Q15139 1-912): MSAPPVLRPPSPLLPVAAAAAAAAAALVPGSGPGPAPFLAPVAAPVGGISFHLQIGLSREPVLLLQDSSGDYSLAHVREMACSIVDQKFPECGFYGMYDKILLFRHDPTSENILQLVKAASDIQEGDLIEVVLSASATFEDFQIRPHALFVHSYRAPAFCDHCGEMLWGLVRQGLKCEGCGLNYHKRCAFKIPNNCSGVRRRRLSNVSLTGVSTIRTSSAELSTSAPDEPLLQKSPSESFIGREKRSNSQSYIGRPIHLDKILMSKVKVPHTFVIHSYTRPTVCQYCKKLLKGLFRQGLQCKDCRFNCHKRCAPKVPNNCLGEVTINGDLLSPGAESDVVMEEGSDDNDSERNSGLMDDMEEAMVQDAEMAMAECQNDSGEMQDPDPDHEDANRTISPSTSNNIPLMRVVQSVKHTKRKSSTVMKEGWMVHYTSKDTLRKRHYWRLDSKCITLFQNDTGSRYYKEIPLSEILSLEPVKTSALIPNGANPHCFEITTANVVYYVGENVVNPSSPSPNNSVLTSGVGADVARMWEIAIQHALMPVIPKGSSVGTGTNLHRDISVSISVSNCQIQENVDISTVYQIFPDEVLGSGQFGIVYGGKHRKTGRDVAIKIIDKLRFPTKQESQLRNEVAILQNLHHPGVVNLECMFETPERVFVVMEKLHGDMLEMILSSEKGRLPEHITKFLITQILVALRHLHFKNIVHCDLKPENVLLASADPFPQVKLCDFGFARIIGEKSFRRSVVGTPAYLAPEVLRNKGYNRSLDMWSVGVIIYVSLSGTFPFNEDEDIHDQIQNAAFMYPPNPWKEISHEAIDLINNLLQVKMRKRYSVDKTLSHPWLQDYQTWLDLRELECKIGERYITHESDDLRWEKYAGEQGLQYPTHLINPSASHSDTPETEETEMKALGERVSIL
# [10] = tested on: PI3K; conditions: cited from earlier work
# [11] = target: PKCβI (Homo sapiens, UniProt P05771); conditions: cell-free assays where stated; read-out: IC50 for PKCβI (PKCβ1); cited from earlier work
# Chain of PKCβI (P05771 whole entry): as the sequence (P05771 whole entry, species assumed) above
# [12] = target: PKCβII (Homo sapiens, UniProt P05771); conditions: cell-free assays where stated; read-out: IC50 for PKCβII (PKCβ2); cited from earlier work
# Chain of PKCβII (P05771 1-673 isoform P05771-2): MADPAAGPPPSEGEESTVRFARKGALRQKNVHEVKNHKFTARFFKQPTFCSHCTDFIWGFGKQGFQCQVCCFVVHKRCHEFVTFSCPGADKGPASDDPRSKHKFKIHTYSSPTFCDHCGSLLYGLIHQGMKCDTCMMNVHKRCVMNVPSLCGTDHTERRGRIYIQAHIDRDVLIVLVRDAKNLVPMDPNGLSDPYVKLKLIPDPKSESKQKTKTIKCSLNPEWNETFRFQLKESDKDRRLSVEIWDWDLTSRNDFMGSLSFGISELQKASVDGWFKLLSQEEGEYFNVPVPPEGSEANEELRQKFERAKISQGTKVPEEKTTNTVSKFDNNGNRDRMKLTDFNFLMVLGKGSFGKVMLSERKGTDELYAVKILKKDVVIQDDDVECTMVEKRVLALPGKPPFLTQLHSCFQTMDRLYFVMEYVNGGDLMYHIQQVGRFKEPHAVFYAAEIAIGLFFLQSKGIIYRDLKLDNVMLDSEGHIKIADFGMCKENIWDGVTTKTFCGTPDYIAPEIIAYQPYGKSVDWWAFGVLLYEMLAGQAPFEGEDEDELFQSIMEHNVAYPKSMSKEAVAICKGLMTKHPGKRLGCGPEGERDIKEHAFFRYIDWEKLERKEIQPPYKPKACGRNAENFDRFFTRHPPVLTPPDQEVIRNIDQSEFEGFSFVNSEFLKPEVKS
# [13] = target: PKN2 (Homo sapiens, UniProt Q16513); conditions: cited from earlier work
# Chain of PKN2 (Q16513 whole entry): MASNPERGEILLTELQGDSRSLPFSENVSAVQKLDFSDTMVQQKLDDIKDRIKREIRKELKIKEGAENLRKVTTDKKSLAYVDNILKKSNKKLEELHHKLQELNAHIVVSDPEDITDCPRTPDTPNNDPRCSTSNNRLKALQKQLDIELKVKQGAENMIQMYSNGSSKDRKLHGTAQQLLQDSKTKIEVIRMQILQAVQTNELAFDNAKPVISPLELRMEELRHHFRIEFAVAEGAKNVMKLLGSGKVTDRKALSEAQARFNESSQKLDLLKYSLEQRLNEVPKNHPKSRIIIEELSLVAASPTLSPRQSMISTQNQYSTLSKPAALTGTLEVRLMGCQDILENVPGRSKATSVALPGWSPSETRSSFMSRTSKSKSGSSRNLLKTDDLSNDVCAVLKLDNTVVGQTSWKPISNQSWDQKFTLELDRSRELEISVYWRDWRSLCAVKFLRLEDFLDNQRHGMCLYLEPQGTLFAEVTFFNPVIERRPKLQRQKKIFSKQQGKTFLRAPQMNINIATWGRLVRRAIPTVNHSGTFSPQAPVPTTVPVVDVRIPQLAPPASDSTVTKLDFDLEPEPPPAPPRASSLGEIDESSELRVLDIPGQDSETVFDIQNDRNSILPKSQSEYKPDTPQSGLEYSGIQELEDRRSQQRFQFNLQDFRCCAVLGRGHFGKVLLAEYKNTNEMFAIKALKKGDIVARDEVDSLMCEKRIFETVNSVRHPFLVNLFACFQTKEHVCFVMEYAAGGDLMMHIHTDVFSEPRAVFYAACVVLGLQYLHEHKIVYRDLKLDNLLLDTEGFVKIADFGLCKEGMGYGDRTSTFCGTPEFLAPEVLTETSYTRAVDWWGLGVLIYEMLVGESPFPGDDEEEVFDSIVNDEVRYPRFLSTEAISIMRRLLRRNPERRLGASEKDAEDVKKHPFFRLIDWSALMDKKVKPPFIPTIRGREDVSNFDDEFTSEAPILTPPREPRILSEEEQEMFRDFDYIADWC
# [14] = tested on: Primary monocytes from HD or FMF patients; assay: IL-1β release by primary monocytes (ELISA of supernatant); conditions: LPS-primed; Ro 31-8220 100 μM or ATP 2.5 mM, 1.5 h
# Description: Blood was drawn in heparin-coated tubes and kept at room temperature overnight. The next day, peripheral blood mononuclear cells (PBMCs) were isolated by density-gradient centrifugation using Lymphocyte Separation Medium (Eurobio) [23]. Monocytes were isolated from PBMCs by magnetic selection using CD14 MicroBeads (Miltenyi Biotec) [24] and the AutoMACS Pro Separator (Miltenyi Biotec) following manufacturer's instructions. Monocytes were enumerated in the presence of a viability marker (propidium iodide, 10 μg/ml) by flow cytometry (BD Accuri C6 Flow Cytometer®) [25].
# When indicated, monocytes were incubated for 3 hours in the presence of LPS (10 ng/ml, Invivogen). […] Following the incubation, cells were centrifuged and supernatants were collected.
# Levels of IL-1β in monocyte supernatants were quantified by ELISA (R&D Systems). […] Three technical replicates per conditions were done.
# [15] = tested on: PKC; conditions: cited from earlier work
# [16] = tested on: apamin-sensitive K+ channels; conditions: cited from earlier work
# [17] = tested on: PKA; conditions: cited from earlier work
# [18] = target: PKCθ (Homo sapiens, UniProt Q04759); conditions: cell-free assay; cited from earlier work
# Chain of PKCθ (Q04759 whole entry): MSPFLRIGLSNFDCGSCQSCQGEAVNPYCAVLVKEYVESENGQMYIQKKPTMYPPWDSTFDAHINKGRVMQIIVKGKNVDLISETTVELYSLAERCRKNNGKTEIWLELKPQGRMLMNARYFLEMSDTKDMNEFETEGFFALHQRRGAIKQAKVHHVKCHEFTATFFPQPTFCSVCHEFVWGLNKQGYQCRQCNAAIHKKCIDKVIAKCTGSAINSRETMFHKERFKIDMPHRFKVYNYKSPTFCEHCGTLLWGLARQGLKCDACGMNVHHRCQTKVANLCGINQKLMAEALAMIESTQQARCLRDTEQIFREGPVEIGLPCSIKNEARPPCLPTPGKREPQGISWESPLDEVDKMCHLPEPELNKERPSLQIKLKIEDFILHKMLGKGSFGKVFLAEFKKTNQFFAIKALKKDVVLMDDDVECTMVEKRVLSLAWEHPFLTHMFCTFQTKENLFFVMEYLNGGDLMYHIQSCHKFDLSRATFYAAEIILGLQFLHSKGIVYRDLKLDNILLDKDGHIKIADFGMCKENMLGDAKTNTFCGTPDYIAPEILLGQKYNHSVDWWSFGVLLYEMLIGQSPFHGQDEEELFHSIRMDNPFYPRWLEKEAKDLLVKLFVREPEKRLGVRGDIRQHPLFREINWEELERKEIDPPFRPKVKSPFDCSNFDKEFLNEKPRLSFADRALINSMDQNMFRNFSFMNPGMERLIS
# [19] = LPS 10 ng/ml 3 h, then nigericin 5 μM
smiles,measurement,setting,value
CO[C@@H]1C[C@@H](C[C@H]2CC[C@H](C)[C@H]([C@@H](C)C(=O)O)O2)O[C@]2(O[C@](C)([C@H]3CC[C@@](C)([C@@H]4O[C@@H]([C@H]5O[C@@](O)(CO)[C@H](C)C[C@@H]5C)C[C@@H]4C)O3)C[C@H]2C)[C@@H]1C [nigericin],"time to reach 20% cell death, FMF patients' monocytes",[1]; [19],74 min
same,"time to reach 20% cell death, monocytes from healthy controls",[1]; [19],72 min
same,difference in AUC of cell death kinetics between FMF and HD monocytes (in words),[1],did not demonstrate any statistical difference
Cn1c2ccccc2c2c3c(c4c5ccccc5n(CCC#N)c4c21)CNC3=O [Go6976],IC50,[2],7.9 nM
"CN[C@@H]1C[C@H]2O[C@@](C)([C@@H]1OC)n1c3ccccc3c3c4c(c5c6ccccc6n2c5c31)C(=O)N[C@H]4O [UCN-01, 7-hydroxystaurosporine]",difference in AUC of cell death kinetics between FMF and HD monocytes (in words),[1],statistical difference
same,"time to reach 20% cell death, FMF patients' monocytes","[1]; UCN-01 12.5 μM, no priming",less than 50 minutes
same,IC50,[3],530 nM
COc1ccc2c(c1)c(C1=C(c3c[nH]c4ccccc34)C(=O)NC1=O)cn2CCCN(C)C [Go 6983],IC50,[4],7 nM
same,IC50,[5],7 nM
same,IC50,[6],6 nM
same,IC50,[7],10 nM
same,activity on PKCζ (in words),[8],less potent
same,activity on PKCμ (in words),[9],inactive
O=c1c(O)c(-c2ccc(O)c(O)c2)oc2cc(O)cc(O)c12 [Quercetin],IC50,[10],2400 to 5400 nM
CS(=O)(=O)O.Cn1cc(C2=C(c3cn(CCCSC(=N)N)c4ccccc34)C(=O)NC2=O)c2ccccc21 [Ro 31-8220 Mesylate],IC50,[4],5 nM
same,IC50,[11],24 nM
same,IC50,[12],14 nM
same,IC50,[6],27 nM
same,IC50,[3],24 nM
same,efficacy to inhibit PKN2 (in words),[13],low efficacy
same,difference in IL-1β release between FMF and HD monocytes (in words),[14],same trends
Nc1ncnc2c1ncn2[C@@H]1O[C@H](COP(=O)(O)OP(=O)(O)OP(=O)(O)O)[C@@H](O)[C@H]1O [ATP],difference in IL-1β release between FMF and HD monocytes (in words),[14],did not observe any difference
Cc1cc(N)c2ccccc2[n+]1CCCCCCCCCC[n+]1c(C)cc(N)c2ccccc21 [Dequalinium Chloride],IC50,[15],7000 to 18000 nM
same,IC50,[16],1100 nM
CN(C)CCCn1cc(C2=C(c3c[nH]c4ccccc34)C(=O)NC2=O)c2ccccc21 [Bisindolylmaleimide I],IC50,[4],20 nM
same,IC50,[11],17 nM
same,IC50,[12],16 nM
same,IC50,[6],20 nM
same,"selectivity for PKC as compared to EGFR, PDGFR and insulin receptor",[15],more than 3000 fold
O=c1ccc2ccc(O)c(O)c2o1 [Daphnetin],IC50,[15],25000 nM
same,IC50,[17],9330 nM
CN1CCN(c2nc(C3=C(c4c[nH]c5ccccc45)C(=O)NC3=O)c3ccccc3n2)CC1 [Sotrastaurin],Ki,[18],0.22 nM
same,activity on PKCζ (in words),[8],inactive
